Results taken from patent publication US12421264B2 (INSTITUT NATIONAL DE LA RECHERCHE SCIENTIFIQUE, priority 2018, dated 2025).

Key:
[1] = system: N. meninigitidis (LNP24198) expressing luciferase (LuxABCDE); test: N. meningitidis luminescent strain growth assay (16 h); assay type: cell-based, Neisseria meningitidis
Protocol: N. meningitidis Luminescent Strain Growth Assay (16 h)
To perform the library screening (FIG. 1) or to compare the activity of the different boron-containing salts (FIG. 3), the amount of light produced after 16 h of growth for N. meningitidis luminescent strain was measured. Contrarily to optical density (OD) readings which can be misleading due to the absorbance of dead cells, this measurement is directly correlated to the number of live cells, as the half-life of the luciferase and its substrate are limited and that the emission of light is therefore not subsisting after the death of the cells. To perform this assay, N. meninigitidis (LNP24198) expressing luciferase (LuxABCDE) was grown overnight under the control of the constitutive promoter porBp in GCB agar media, and a cell-suspension corresponding to an OD600=0.01 was subsequently prepared. In parallel, fresh stock DMSO solutions of the compounds were prepared (100×, with final concentrations being indicated in the different figures) and 1.8 μL of the corresponding solutions were added per well of 96-well plates. In each well, 178.2 μL of bacterial suspension were subsequently added. Bacteria were allowed to grow during 16 h at 37° C. with 5% CO2. The emitted light was measured using a 96-well plate luminometer (PerkinElmer Wallac 1420 Victor^3) and results are expressed in relative light unit (RLU). All these assays were performed at least in triplicates.
To screen molecules for their antibacterial activity, a luminescent system was used, as previously described for other bacteria. A clinical isolate of N. meninigitidis (LNP24198) expressing luciferase (LuxABCDE) under the control of the constitutive promoter porBp was used, as similarly described, located in the intergenic region next to NMB1732. More than 2400 compounds from different origins were screened to identify candidates with the ability to inhibit the growth of N. meningitidis after 16 h at 37° C. […] It is noteworthy that stock solutions for all tested compounds were prepared in DMSO and that the final DMSO concentration of the tested solutions was kept at 1%, a concentration which has proven not to affect the growth of N. meningitidis (FIG. 1A). […] An investigation of the effect of the BPh4^− moiety was then pursued.
To exclude any salt-specific effect, the effect of several BPh4^− and BF4^− salts on the growth of N. meningitidis luminescent strain was tested. The growth of N. meningitidis was measured after a 16 h-exposure to different concentrations of various BPh4^− and BF4^− salts. From this assay, the MIC (minimum inhibitory concentration, the lowest concentration that prevents visible bacterial growth, <800 RLU) was calculated. All BPh4 salts tested (sodium, ammonium and potassium) were all highly toxic for N. meningitidis.
Several borate compounds were prepared and their ability to inhibit N. meningitidis growth was assessed using the luminescent system described at Example 2.

[2] = system: Moraxella catarrhalis; test: Bacterial survival assay (3 h), CFU counts; assay type: cell-based; settings: 50 μM, compared with N. meningitidis and N. gonorrhoeae
Protocol: (§1) Bacterial Survival Assay (3 h)
(§2) To measure bacterial survival (FIGS. 2 and 4), different bacteria were exposed to various concentrations of the compounds (as indicated) in their specific growth media (see the culture conditions above) for 3 h at 37° C. To perform this assay, all strains were grown overnight in their corresponding agar media. Cell-suspension corresponding to an OD600=0.05 were subsequently prepared. In parallel, fresh stock DMSO solutions of the compounds were prepared (100×, with final concentrations being indicated in the different figures) and 1.8 μL of the corresponding solutions were added per well of 96-well plates. In each well, 178.2 μL of bacterial suspension were subsequently added. Bacteria were allowed to grow during […] at 37° C. with 5% CO2. After incubation, serial dilutions (until 10^−6) were performed and 50 μL of each diluted solution were spread on agar plates. After an overnight incubation at 37° C. with/without 5% CO2, CFU were enumerated. All these assays were performed at least in triplicates.
(§3) To verify if the toxicity of BPh4^− is specific to the Neisseria genus, the percentage of survival of several Neisseria species was assessed after treatment with 50 μM of NaBPh4^− for 3 h (FIG. 4A). […] Other Gram-negative species such as Yersinia enterocolitica and Citrobacter rodentium (order Enterobacterales) or Moraxella catarrhalis (order Pseudomonadeles), but also Gram-positive species such as Staphylococcus aureus and Actinobacteria with M. smegmatis, were also tested.

[3] = system: Citrobacter rodentium; test: Bacterial survival assay (3 h), CFU counts; assay type: cell-based; settings: 50 μM, compared with N. meningitidis and N. gonorrhoeae
Protocol: as §1, §2, §3

[4] = system: M. smegmatis; test: Bacterial survival assay (3 h), CFU counts; assay type: cell-based; settings: 50 μM, compared with N. meningitidis and N. gonorrhoeae
Protocol: as §1, §2, §3

[5] = system: Yersinia enterocolitica; test: Bacterial survival assay (3 h), CFU counts; assay type: cell-based; settings: 50 μM, compared with N. meningitidis and N. gonorrhoeae
Protocol: as §1, §2, §3

[6] = system: Staphylococcus aureus; test: Bacterial survival assay (3 h), CFU counts; assay type: cell-based; settings: 50 μM, compared with N. meningitidis and N. gonorrhoeae
Protocol: as §1, §2, §3

[7] = system: N. elongata; test: Bacterial survival assay (3 h), CFU counts; assay type: cell-based, Neisseria elongata
Protocol: as §1, §2
(§4) To verify if the toxicity of BPh4^− is specific to the Neisseria genus, the percentage of survival of several Neisseria species was assessed after treatment with 50 μM of NaBPh4^− for 3 h (FIG. 4A). […]

[8] = system: N. sicca; test: Bacterial survival assay (3 h), CFU counts; assay type: cell-based, Neisseria sicca; settings: 50 μM, compared with N. meningitidis and N. gonorrhoeae
Protocol: as §1, §2, §4

[9] = system: N. gonorrhoeae (LNP16626); test: Bacterial survival assay (3 h), CFU counts; assay type: cell-based, Neisseria gonorrhoeae
Protocol: as §1, §2
(§5) Therefore, the bactericidal activity was assessed for the 4 compounds harboring a BPh4^− identified from the initial screen described above (AnIII-7, AnIII-6, AnII-18, NaBPh4). N. meningitidis was treated with 50 μM of each compound and the % survival cells (compared with DMSO 1% control) was measured using serial dilutions and CFU counts. […] To verify if the bactericidal effect could be observed for the other pathogen of the Neisseria family, a clinical isolate of. N. gonorrhoeae (LNP16626 [3]) was also treated with 50 μM of the same compounds, respectively, using the same assay.
(§6) The MBC (minimum bactericidal concentration that kill >99.999%), the concentration necessary to completely abrogate bacterial survival after a 3 h exposure to NaBPh4, was next assessed.

[10] = Toxicity of NaBPh4 in mice; assay type: in vivo, Balb/c mice; settings: mice treated with NaBPh4 (IV or IP)
Protocol: (§7) The strain LNP 24198 of Neisseria meningitidis expressing the luxCDABE gene under the control of the porBp promoter was used. Three groups, with five seven-week-old Balb/c mice each, were infected with luminescent Neisseria meningitidis. For this, 200 μL of bacterial cultures at OD600nm of 0.1 (5×10^7 cells/mL) mixed with 150 μL of human transferrin (20 mg/mL) was injected in each mouse. Two hours later, one group was treated with 100 μL of NaBPh4 (20 μM) injected into the tail veins by intravenous injection (IV), and one group was treated with the same dose injected by intraperitoneal injection (IP). The remaining five were treated with 100 μL of DMSO as controls. NaBPh4 was initially prepared at 20 mM in DMSO before being diluted into PBS to reach a final concentration of 20 μM (with 0.1% DMSO). DMSO was diluted in PBS in the same manner to achieve 1:1000. To test a possible toxicity of NaBPh4, one group of 5 non-infected mice was treated with 100 μL of DMSO (IP) and two groups with 100 μL NaBPh4 (IV or IP). Luminescence was then measured, on the front and back of the mice, at different time points (0, 4, 8, 24 and 48 hours post-infection). The light signal was determined for each mouse using the ROI (Region Of Interest) tool of the IVIS Lumina Ill.
(§8) The effect of NaBPh4 administration in a murine model of N. meningitidis infection was assessed.

[11] = system: N. meningitidis (strain LNP 24198, luminescent); test: Mice infection with luminescent N. meningitidis; assay type: in vivo, Balb/c mice; settings: IV or IP administration 2 h after infection, 24 h and 48 h post-infection, relative to vehicle (DMSO)
Protocol: as §7, §8

[12] = system: N. meningitidis; test: Bacterial survival assay (3 h), CFU counts; assay type: cell-based, Neisseria meningitidis
Protocol: as §1, §2, §5, §6

[13] = system: N. lactamica; test: Bacterial survival assay (3 h), CFU counts; assay type: cell-based, Neisseria lactamica
Protocol: as §1, §2, §4

[14] = 50 μM, 3 h, compared with N. meningitidis and N. gonorrhoeae

## [Na+].c1ccc([B-](c2ccccc2)(c2ccccc2)c2ccccc2)cc1 [Compound 1, Sodium tetraphenylborate]
[1]; 100 μM, 16 h at 37° C., 1% DMSO
  inhibition of the growth of N. meningitidis (library screening): active
[1]; Neisseria meningitidis, 16 h
  MIC: 15 µM
[2]
  survival of Moraxella catarrhalis: significantly more resistant
[3]
  survival of Citrobacter rodentium: significantly more resistant
[4]
  survival of M. smegmatis: significantly more resistant
[5]
  survival of Yersinia enterocolitica: significantly more resistant
[6]
  survival of Staphylococcus aureus: significantly more resistant
[7]; [14]
  survival of N. elongata: less sensitive
[7]; N. elongata, 3 h exposure
  MBC (minimum bactericidal concentration that kill >99.999%): higher than 200 μM
[8]
  survival of N. sicca: less sensitive
[9]; 50 μM, 3 h, CFU counts
  survival of N. gonorrhoeae: no viable cells were detected
[9]; N. gonorrhoeae, 3 h exposure
  MBC (minimum bactericidal concentration that kill >99.999%): 7.5 µM
[10]
  sign of toxicity in mice: No apparent sign of toxicity
[11]
  N. meningitidis bacterial load (luminescence): significantly reduces
[12]; 50 μM, 3 h, CFU counts vs DMSO 1% control
  survival of N. meningitidis: the detection of any live bacteria was not possible
[12]; N. meningitidis, 3 h exposure
  MBC (minimum bactericidal concentration that kill >99.999%): 18 µM
[13]; [14]
  survival of N. lactamica: not as sensitive
[13]; N. lactamica, 3 h exposure
  MBC (minimum bactericidal concentration that kill >99.999%): higher than 200 μM
